Where a name gives a salt, the structure may show the parent alone.
Key:
stomach (mucosal damage) = test: In vivo ulcerogenicity study in rats; parameters: species or system male Sprauge-Dawley rats; conditions: for number of lesions / ulcer score: single equimolar dose (diclofenac sodium 100 mg/kg, prodrug 140 mg/kg); for number of lesions: average, for the prodrug punctiform lesions; for ulcer score: sacrificed after 17 h
Description: The ulceroginicity of diclofenac sodium and its prepared prodrug 2 were evaluated. Three groups (six animals each) of male Sprauge-Dawley rats (150–200 gm) were fasted for 8 h prior to administration of single equimolar doses of diclofenac sodium (100 mg/kg), its prodrug (140 mg/kg), or vehicle. Free access to food and water were provided throughout the experiment. […] The stomach of the rats was dissected out of the body, and stomach content was emptied and washed with saline. The stomach was then opened and wiped with a clean swap dipped in saline. The degree of mucosal damage was assessed using a 4× binocular magnifier. The severity of the damage was assessed according to a scoring system where the presence of <5 punctiforms with no ulcers was given the score of zero. A punctiform was defined as a lesion of less than 1 mm. If >5 punctiforms were present with no ulcer, a score of 1 was given. If 1–5 small ulcers (1–2 mm in diameter) were observed, a score of 2 was given. If >5 small ulcers or one large ulcer (>2 mm in diameter) was present, a score of […] was given. If >1 large ulcer was observed, a score of 4 was given. The scores were averaged and the mean score was tabulated as ulcerogenicity index for the drugs under investigation.

[1] = Hydrolysis kinetics in aqueous buffer solution; assay type: physicochemical; conditions: about 37 °C
Description: (§1) The HPLC analysis was performed using LaChrom Merck Hitachi system that consists of a D-7000 interface, L-7200 diode array detector, pump L-7150 and D-7000HSM software (Schaumburg, IL, USA). The UV detector was set at 280 nm wave length. The HPLC column was an Agela unisol-C18, 5 micron 4.6 × 150. Mobile phase was 80% methanol, 20% water. To each litre, 2 mL acetic acid were added. The mobile phase was pumped at flow rate 1.5 mL/min. The retention times were: 5.17 min 6.19 min and 7.15 min for 2-hydroxyethyldiclofenac, diclofenac sodium and the morpholine prodrug, respectively (Figure 2). The analytical method was fully validated.
The prodrug under investigation was incubated in 0.1 N HCl (pH 1.0) and phosphate buffer (pH 7.4). The formed solutions were kept in a shaking water bath at about 37 °C for eight h. At appropriate intervals, samples (100 µL) were analyzed using the HPLC method described earlier.

[2] = Hydrolysis kinetics in human plasma; assay type: in vitro ADME; conditions: 37 ± 0.3 °C
Description: as §1
The prodrug under investigations was incubated in human plasma using a shaking water bath, which was set at 37 ± 0.3 °C. An amount of 25 µL of 1.0 mg/mL stock solution of the prodrug under investigation was added to 5 mL of the incubated plasma. At appropriate time points, samples of 100 μL were withdrawn and deproteinized by adding equal volumes of acetonitrile. The formed mixture was mixed on a vortex then centrifuge at 2,500 rpm for 10 min. The clear supernatant was analyzed using the HPLC method.

half-life ([1]; pH 1 (0.1 N HCl))	half-life ([1]; pH 7.4 (phosphate buffer))	half-life at 5 µg/mL [2]	Structure (SMILES)	lesions larger than 2 mm (stomach (mucosal damage); single dose diclofenac sodium 100 mg/kg, 17 h)	number of lesions (stomach (mucosal damage); 17 h)	ulcer score (stomach (mucosal damage))
–	–	–	O=C(O)Cc1ccccc1Nc1c(Cl)cccc1Cl [Compound 1, 2-[(2,6-dichloro-phenyl])amino]benzeneacetic acid sodium salt]	six	82	four
8 h	47 h	0.35 h	O=C(Cc1ccccc1Nc1c(Cl)cccc1Cl)OCCOC(=O)N1CCOCC1 [Compound 2]	–	less than five	zero
